Assay results reported in patent US20250268910A1 (priority 2022, published 2025).

What was measured:
[1] = system: citric acid-induced cough in guinea pigs; test: In vivo citric acid-induced cough in guinea pigs (whole body plethysmograph); details: for cough incubation period: p<0.05 vs saline control (232 seconds)
Method: As depicted in FIG. 1, cough induction is conducted by placing guinea pigs into a whole body plethysmograph (WBP) equipped with a Aeroneb™ vibrating mesh nebulizer, and including pressure transducers and detection equipment (EMKA technologies). A primary microphone is supplied (EMKA Technologies) for acoustic confirmation of cough frequency in the form of a digital trace using the EMKA software.
A secondary microphone (T1 True Wireless Earphone, QCY®) also is placed in the chamber and connected to a smartphone via Bluetooth to enable the observers to hear the audible sounds during the test. A bias flow rate of 2 L/min is used to continuously draw either atmospheric air (during the fresh air period) or aerosolized citric acid from the nebulizer into the WBP and expel it out through an exhaust pipe. Chamber pressure in the WBP is set to be between −10 to −30 Pa relative to ambient pressure.
Prior to the citric acid challenge, the guinea pigs are administered (intraperitoneal injection) with vehicle control, positive control or test compound (where applicable) with different dosage (Table 2) and placed individually into the WBP for at least 5 minutes in order to habituate.
The procedure was as follows: Injection→mice in box having citric acid for 10 mins (counting the cough)→box then fill with air for 5 mins (counting the cough)→mice move to recovery cage.
Appropriate concentration of citric acid is used to generate aerosol and deliver to WBP for 10 minutes with constant recording of pressure measurements. The mean concentration of citric acid was 1283.1±137.2 μg/L. Upon completion of citric acid challenge, the guinea pig is allowed to recover and continue recording of cough counts for another 5 minutes. Subsequently, the guinea pigs are closely monitored in recovery cage for full recovery from the challenge and that no adverse events were present before returning the animals to its home cage. Cough counts (CCnt) are recorded over a period of at least 10 mins, starting from citric acid stimulation and cough incubation period (CIP) are defined as the time it takes to cough for the first time after citric acid stimulation.
The cough response during citric acid challenge and post-treatment recovery is carefully monitored using: • continuous pressure monitoring (plethysmography monitoring software) • acoustic confirmation of cough using microphones (primary and secondary) • visual confirmation of cough through posture change.
The data were analysed using Oneway ANOVA (*p<0.05, **p<0.01, ***p<0.001, ****p<0.0001) when compared to saline control, and each column represents Mean±SEM.

human α7 nAChR subtype = target: T1, human α7 nAChR subtype (Homo sapiens, UniProt P36544); test: biochemical; format: binding
T1 construct: expressed in transfected cells; host or cells: SH-SY5Y cells (membranes)
T1 sequence (P36544 23-502): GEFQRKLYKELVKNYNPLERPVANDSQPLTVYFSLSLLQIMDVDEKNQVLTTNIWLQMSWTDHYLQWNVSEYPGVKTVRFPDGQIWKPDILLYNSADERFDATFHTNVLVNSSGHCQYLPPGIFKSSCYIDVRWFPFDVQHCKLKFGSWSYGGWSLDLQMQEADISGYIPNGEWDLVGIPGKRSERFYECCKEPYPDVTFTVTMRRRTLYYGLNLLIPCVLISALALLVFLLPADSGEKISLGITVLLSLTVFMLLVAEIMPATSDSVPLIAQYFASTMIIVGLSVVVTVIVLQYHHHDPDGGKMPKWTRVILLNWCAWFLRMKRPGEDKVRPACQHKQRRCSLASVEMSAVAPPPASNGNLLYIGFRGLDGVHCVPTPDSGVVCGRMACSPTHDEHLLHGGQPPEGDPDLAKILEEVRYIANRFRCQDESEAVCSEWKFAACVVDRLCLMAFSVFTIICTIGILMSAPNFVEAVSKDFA

`C1=C(c2ccc(-c3ccccc3)nc2)C2CCN(C1)CC2` [4-(6-Phenyl-3-pyridyl)-1-azabicyclo[3.2.2]non-3-ene] was tested, and the “citric acid-induced cough counts (number of coughs)” value (shortened to “citric acid-induced cough counts”) ([1]; high concentration 15 mg/kg intraperitoneal, p<0.05 vs saline control (13 coughs)) was 7, the cough incubation period ([1]; high concentration 15 mg/kg intraperitoneal) was 491 s and the “citric acid-induced cough counts” value ([1]; low concentration 1.5 mg/kg intraperitoneal, p<0.0001 vs saline control (13 coughs)) was 3. For the same compound, the cough incubation period ([1]; low concentration 1.5 mg/kg intraperitoneal) was 504 s, the “citric acid-induced cough counts” value ([1]; medium concentration 5 mg/kg intraperitoneal, p<0.05 vs saline control (13 coughs)) was 6 and the Ki (human α7 nAChR subtype) was 0.13 µM.
For `C1=C(c2ccc(-c3ccccc3)nn2)C2CCN(C1)CC2` [4-(6-Phenylpyridazin-3-yl)-1-azabicyclo[3.2.2]non-3-ene], the Ki (human α7 nAChR subtype) was 0.32 µM.
